The text below walks through data of patent US20110098219A1, “System for Curing Hepatic Cancer with Leptin” (KAOHSIUNG MEDICAL UNIVERSITY, priority 2009, published 2011).

Each structure is given as a SMILES string.

Test [1] deals with STAT- and MAPK-related signal paths. Briefly: Protein expression of STAT- and MAPK-related signal paths in normal liver cell line. Format: cell-based. The procedure:
Please refer to FIG. 17A to FIG. 18B, which are views showing epithelial cell line of normal liver treated with MPA+leptin for 24 hours and 48 hours respectively; and views showing STAT3- and MAPK-related signal paths after treating cell line of normal liver with MPA+leptin. As shown in the figures, after epithelial cell line of normal liver (THLE-3) is applied with MPA+leptin for […], MPA+leptin's effect on cell growth (i.e. survival rate) is analyzed through XTT assay. […] Besides, in FIG. 18A and FIG. 18B, protein expressions for STAT- and MAPK-related signal paths are analyzed.

Test [2] has as its target T1, leptin receptor and progesterone receptor (Homo sapiens, UniProt P06401).
T1 construct: endogenous in cells
T1 sequence (P06401 1-933): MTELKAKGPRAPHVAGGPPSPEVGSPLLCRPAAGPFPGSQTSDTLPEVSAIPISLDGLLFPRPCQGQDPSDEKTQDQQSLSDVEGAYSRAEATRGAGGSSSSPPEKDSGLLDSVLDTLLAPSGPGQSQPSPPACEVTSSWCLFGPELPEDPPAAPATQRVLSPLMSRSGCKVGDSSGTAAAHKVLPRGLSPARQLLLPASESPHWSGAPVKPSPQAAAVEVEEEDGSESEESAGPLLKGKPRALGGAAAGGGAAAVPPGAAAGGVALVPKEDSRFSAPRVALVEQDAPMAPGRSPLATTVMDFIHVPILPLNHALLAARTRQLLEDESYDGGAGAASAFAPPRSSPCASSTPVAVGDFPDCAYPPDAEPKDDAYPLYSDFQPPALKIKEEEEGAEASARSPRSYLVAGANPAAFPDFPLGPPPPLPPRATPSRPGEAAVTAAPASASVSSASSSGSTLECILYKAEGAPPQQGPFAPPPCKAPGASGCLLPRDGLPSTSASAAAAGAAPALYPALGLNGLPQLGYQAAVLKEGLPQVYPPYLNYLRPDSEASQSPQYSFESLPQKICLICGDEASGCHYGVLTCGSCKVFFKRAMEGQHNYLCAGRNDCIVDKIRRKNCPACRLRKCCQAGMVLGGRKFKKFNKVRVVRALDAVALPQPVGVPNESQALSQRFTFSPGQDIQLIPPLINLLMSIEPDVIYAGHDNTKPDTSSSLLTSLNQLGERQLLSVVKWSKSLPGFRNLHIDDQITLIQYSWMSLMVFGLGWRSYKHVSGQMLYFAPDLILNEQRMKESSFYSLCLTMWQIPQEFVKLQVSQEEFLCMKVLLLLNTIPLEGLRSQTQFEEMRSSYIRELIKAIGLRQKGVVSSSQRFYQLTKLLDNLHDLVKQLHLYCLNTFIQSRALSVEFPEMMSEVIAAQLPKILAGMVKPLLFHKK
T1 sequence (P48357 22-1165 partner): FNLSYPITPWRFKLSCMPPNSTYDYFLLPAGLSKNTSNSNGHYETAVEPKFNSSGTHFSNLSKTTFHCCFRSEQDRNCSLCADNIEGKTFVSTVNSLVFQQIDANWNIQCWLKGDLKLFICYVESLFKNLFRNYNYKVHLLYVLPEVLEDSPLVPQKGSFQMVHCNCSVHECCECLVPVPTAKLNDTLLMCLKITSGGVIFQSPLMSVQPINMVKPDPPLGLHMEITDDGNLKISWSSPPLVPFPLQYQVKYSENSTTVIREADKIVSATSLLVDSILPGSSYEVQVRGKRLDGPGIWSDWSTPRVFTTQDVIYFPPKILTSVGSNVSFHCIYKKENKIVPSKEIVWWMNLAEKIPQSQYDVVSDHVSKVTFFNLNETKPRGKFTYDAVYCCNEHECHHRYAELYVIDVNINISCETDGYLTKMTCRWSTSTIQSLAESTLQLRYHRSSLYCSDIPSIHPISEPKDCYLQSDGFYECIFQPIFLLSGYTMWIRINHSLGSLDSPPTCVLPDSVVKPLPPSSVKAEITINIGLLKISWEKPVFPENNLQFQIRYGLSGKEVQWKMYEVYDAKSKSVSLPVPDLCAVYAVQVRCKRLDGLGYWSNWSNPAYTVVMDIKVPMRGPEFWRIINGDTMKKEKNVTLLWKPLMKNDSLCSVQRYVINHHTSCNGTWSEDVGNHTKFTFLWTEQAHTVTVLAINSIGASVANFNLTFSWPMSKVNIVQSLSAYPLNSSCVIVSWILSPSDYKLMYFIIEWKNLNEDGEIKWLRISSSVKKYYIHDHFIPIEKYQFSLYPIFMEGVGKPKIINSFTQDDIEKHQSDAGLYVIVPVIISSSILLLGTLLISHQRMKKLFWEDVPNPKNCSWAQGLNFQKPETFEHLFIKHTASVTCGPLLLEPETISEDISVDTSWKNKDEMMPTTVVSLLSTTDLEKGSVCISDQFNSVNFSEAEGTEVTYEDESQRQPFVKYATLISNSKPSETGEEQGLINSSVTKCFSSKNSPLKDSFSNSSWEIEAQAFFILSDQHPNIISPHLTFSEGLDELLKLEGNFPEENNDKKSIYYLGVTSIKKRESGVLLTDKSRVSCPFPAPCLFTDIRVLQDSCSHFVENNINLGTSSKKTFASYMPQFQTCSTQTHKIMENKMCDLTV
Nature of the test: Immunoprecipitation and immunofluorescent staining, receptor interaction. In kind it is cell-based. As for the experimental part: Please refer to FIG. 8A and FIG. 8B, which are views showing interaction between a leptin receptor and a progesterone receptor through immunoprecipitation and immunofluorescent staining. As shown in the figures, for acknowledging interaction between a leptin receptor and a progesterone receptor, cellular proteins are processed through immunoprecipitation and western blotting with anti-pgR after liver cancer cells are applied with leptin only, MPA only and MPA+leptin for 30 minutes separately. […] The same results are shown through immunofluorescent staining. After the cells are processed for 10 minutes, the progesterone receptor is dyed with FITC; the leptin receptor is dyed with Texas-Red; and cell membrane is dyed with phalloidin, which are observed with fluoresce microscope under 40×. […] Thus, it is confirmed that the leptin receptor and the progesterone receptor interact to work on the liver cancer cells.

In the case of `CC(=O)O[C@]1(C(C)=O)CC[C@H]2[C@@H]3C[C@H](C)C4=CC(=O)CC[C@]4(C)[C@H]3CC[C@@]21C` [MPA, medroxyprogesterone acetate], in test [1], the “effect on STAT- and MAPK-related signal proteins” value is “no obvious effect”. Moreover, the “merged level between leptin receptor and progesterone receptor” value in test [2] (10 minutes, immunofluorescent staining) is recorded as “some of the leptin receptor are merged with some of the progesterone receptor”. The “interaction of leptin receptor and progesterone receptor” value in test [2] (30 minutes, immunoprecipitation and western blotting with anti-pgR) is “interacted”.
